Reference: the NIST ThermoML archive (doi:10.1016/j.fluid.2007.01.033)

What was measured:
[1] = refractive index (Na D-line) (dimensionless); settings: 298.15 K; 101.33 kPa; Liquid; Standard Abbe refractometry
[2] = xn = mol fraction of the nth substance listed; settings: 313.15 K, Liquid

O=C=O [carbon dioxide]
313.15 K, Fluid (supercritical or subcritical phases)
Settings	mass density [kg/m3]
1000 kPa	17.9
2000 kPa	37.1
3000 kPa	58.7
4000 kPa	83.5
5000 kPa	112.7
6000 kPa	148.8
7000 kPa	197.3
8000 kPa	276.7
9000 kPa	483.4
10000 kPa	627.4

COC(C)=O [methyl ethanoate]
Settings	Normal boiling temperature [°C]	refractive index
Liquid	56.89	–
[1]	–	1.3594

Settings	mass density [kg/m3]
298.15 K, 101.33 kPa, Liquid	927.1

COC(C)=O [methyl ethanoate] + O=C=O
mass density [kg/m3], [2]
Settings	1000 kPa	2000 kPa	3000 kPa	4000 kPa	5000 kPa	6000 kPa	7000 kPa	8000 kPa	9000 kPa	10000 kPa
x2 = 0	907.9	908.9	909.7	910.9	912	913.1	914.1	915.1	916.1	917.1
x2 = 0.1	910	911.1	912.4	913.5	914.7	915.9	917	918.1	919.2	920.3
x2 = 0.2	–	913.9	915.2	916.6	917.9	919.1	920.4	921.7	922.9	924.1
x2 = 0.3	–	–	–	917.1	918.6	920.1	921.5	922.9	924.3	925.7
x2 = 0.4	–	–	–	917.4	919.2	920.9	922.7	924.3	925.9	927.5
x2 = 0.5	–	–	–	–	915.4	917.5	919.6	921.6	923.7	925.6
x2 = 0.6	–	–	–	–	–	909	912.8	915.5	918.1	920.7
x2 = 0.7	–	–	–	–	–	891.8	895.9	899.7	903.5	907
x2 = 0.8	–	–	–	–	–	–	861.5	868.2	873.8	879.5
x2 = 0.9	–	–	–	–	–	–	–	793.5	808	820.3
x2 = 0.95	–	–	–	–	–	–	–	–	734.6	759.7
